pKi: −log10 of the molar value. Several values for one entry are separate records, joined by “and”; a condition that tells them apart may be missing. Identical values can stand only once.
Legend:
[1] = biological target: Serotonin 2 (5-HT2) receptor (Homo sapiens, UniProt P41595+P28223+P28335); experiment: The compound was tested for binding affinity against 5-hydroxytryptamine 2 receptor using ketanserin as radioligand; type: protein assay
[2] = biological target: T1, Alpha-1A adrenergic receptor (Homo sapiens, UniProt P35348); experiment: The compound was tested for binding affinity against Alpha-1 adrenergic receptor using WB-4101 as radioligand
T1 sequence (P35348 whole entry): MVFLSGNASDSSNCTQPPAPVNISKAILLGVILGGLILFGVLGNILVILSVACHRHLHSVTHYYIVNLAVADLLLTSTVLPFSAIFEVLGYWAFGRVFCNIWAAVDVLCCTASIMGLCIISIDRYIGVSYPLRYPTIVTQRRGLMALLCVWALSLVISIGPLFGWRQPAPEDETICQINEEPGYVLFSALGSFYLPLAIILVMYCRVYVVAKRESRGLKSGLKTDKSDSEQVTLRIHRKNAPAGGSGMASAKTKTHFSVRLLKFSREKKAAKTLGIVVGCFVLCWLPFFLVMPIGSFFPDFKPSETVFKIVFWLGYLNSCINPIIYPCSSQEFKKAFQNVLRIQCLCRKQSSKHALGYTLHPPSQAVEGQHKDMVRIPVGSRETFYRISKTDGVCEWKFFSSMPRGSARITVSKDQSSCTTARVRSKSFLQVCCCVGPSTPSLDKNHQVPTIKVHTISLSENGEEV

D(1A) dopamine receptor [3] = biological target: T2, D(1A) dopamine receptor (Homo sapiens, UniProt P21728); experiment: Binding affinity determined in radioreceptor binding assay by using [3H]SCH-23390 radioligand against dopamine receptor D1
D(2) dopamine receptor [4] = biological target: T3, D(2) dopamine receptor (Homo sapiens, UniProt P14416); experiment: The compound was tested for binding affinity against dopamine receptor D2 using raclopride as radioligand
[5] = biological target: Muscarinic acetylcholine receptor; experiment: The compound was tested for binding affinity against muscarinic acetylcholine receptor using QNB as radioligand; type: protein assay
[6] = biological target: T4, Sigma non-opioid intracellular receptor 1 (Homo sapiens, UniProt Q99720); experiment: The compound was tested for binding affinity against sigma receptor using DTG as radioligand
D(1A) dopamine receptor [7] = biological target: T2, D(1A) dopamine receptor; experiment: The compound was tested for binding affinity against Dopamine receptor D1 using SCH-23390 as radioligand
D(2) dopamine receptor [8] = biological target: T3, D(2) dopamine receptor; experiment: The compound was tested for binding affinity against Dopamine receptor D2 using raclopride as radioligand
[9] = biological target: Muscarinic acetylcholine receptor; experiment: The compound was tested for binding affinity against Muscarinic acetylcholine receptor using QNB as radioligand; type: protein assay
[10] = biological target: T4, Sigma non-opioid intracellular receptor 1; experiment: The compound was tested for binding affinity against Sigma opioid receptor using DTG as radioligand

T4 sequence (Q99720 whole entry): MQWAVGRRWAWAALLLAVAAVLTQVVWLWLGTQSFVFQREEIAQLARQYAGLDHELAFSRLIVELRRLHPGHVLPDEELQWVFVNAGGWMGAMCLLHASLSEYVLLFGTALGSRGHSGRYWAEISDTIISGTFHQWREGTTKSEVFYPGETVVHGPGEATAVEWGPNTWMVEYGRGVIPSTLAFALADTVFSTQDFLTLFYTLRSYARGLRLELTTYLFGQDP
T3 sequence (P14416 whole entry): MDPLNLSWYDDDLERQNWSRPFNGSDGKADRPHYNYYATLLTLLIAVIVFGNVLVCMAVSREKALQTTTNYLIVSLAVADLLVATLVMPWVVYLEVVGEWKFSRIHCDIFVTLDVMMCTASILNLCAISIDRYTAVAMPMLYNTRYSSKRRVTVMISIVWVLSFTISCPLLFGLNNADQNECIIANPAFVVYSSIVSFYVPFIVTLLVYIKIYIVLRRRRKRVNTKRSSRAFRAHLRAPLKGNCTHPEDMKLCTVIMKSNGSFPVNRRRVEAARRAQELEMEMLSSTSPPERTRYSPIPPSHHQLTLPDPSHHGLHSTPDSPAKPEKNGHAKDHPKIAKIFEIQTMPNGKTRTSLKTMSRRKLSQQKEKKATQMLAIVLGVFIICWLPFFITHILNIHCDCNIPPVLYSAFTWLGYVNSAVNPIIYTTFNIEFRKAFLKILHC
T2 sequence (P21728 whole entry): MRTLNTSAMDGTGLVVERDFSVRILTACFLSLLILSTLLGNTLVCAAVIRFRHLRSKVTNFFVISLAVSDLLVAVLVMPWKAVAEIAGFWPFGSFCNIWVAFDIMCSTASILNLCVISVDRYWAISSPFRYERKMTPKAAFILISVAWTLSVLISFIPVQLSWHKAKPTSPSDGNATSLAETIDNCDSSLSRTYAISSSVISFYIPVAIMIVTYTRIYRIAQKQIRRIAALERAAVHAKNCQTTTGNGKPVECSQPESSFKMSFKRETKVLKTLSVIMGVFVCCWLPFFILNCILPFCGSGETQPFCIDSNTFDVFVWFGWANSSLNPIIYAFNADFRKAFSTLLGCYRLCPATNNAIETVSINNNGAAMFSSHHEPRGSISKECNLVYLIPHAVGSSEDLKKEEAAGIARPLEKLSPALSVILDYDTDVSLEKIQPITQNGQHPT

Row | Ki [1] [nM] | pKi [2] | pKi (D(1A) dopamine receptor [3]) | pKi (D(2) dopamine receptor [4]) | Ki [5] | pKi [6] | pKi (D(1A) dopamine receptor [7]) | pKi (D(2) dopamine receptor [8]) | Ki [9] [nM] | pKi [10] | SMILES
1 | 1 | 7.44 | 9.52 | 9.18 | 4.3 nM | 5.80 |  |  |  |  | CN(C)C1C=CC2(CC1)c1ccccc1C=Cc1ccc(Cl)cc12 (centres undefined)
2 |  |  |  |  | 94 nM and 43 nM | 6.26 and 5.85 |  |  |  |  | CN(C)C1C=CC2(CC1)c1ccccc1CCc1ccc(Cl)cc12 (centres undefined)
3 | 1.3 | 7.21 |  |  |  |  | 8.51 | 8.19 | 7.2 | 6.10 | CN(C)C1C=CC2(CC1)c1ccccc1C=Cc1ccc(Cl)cc12 (single isomer, unassigned; enantiomer 2)

Reference: ChEMBL document CHEMBL1125700, “Conformational properties of semirigid antipsychotic drugs: the pharmacophore for dopamine D-2 antagonist activity” (J Med Chem, 1991)
